Assay results published in patent US7238694B2, “Rifamycin imino derivatives effective against drug-resistant microbes” (Cumbre Pharmaceuticals, Inc., priority 2004, dated 2007).
In brackets after ≈: the same amount, converted by molar mass.

What was measured:
Format in all cases: cell-based
[1] = test system: Streptococcus pyogenes ATCC19615; assay: MIC, microbroth dilution (NCCLS); details: rifS strain, THY Broth, 37° C., read-out: MIC
[2] = test system: Staphylococcus epidermidis ATCC12228; assay: MIC, microbroth dilution (NCCLS); details: rifS strain, Cation-Adjusted Mueller-Hinton Broth, 37° C., read-out: MIC
[3] = test system: Haemophilus influenzae ATCC10211; assay: MIC, microbroth dilution (NCCLS); details: rifS strain, BHI Broth with NAD and hematin, 37° C., read-out: MIC
[4] = test system: Streptococcus pneumoniae ATCC6303; assay: MIC, microbroth dilution (NCCLS); details: rifS strain, THY Broth with 1 mg/mL catalase, 5% CO2, 37° C., read-out: MIC
[5] = test system: Staphylococcus aureus ATCC29213 rpoB^H418Y; assay: microbe, parasite or virus in culture; details: Staphylococcus aureus, ATCC29213; rifR strain; Cation-Adjusted Mueller-Hinton Broth, 37° C.; read-out: MIC
[6] = test system: Staphylococcus aureus MT1222 gyrA^A116E grlB^S80F; assay: microbe, parasite or virus in culture; details: cipR strain, Cation-Adjusted Mueller-Hinton Broth, 37° C., read-out: MIC
[7] = test system: Staphylococcus aureus ATCC29213; assay: MIC, microbroth dilution (NCCLS); details: rifS strain, Cation-Adjusted Mueller-Hinton Broth, 37° C., read-out: MIC

Compound: COc1c(N2CCCC(N/N=C/c3c4c(O)c5c(O)c(C)c6c(c5c3O)C(=O)[C@@](C)(O/C=C/[C@H](OC)[C@@H](C)[C@@H](OC(C)=O)[C@H](C)[C@H](O)[C@H](C)[C@@H](O)[C@@H](C)/C=C/C=C(/C)C(=O)N4)O6)C2)c(F)cc2c(=O)c(C(=O)O)cn(C3CC3)c12 (mixture of isomers) [Example 24, (R/S)-3-[1-(3-Carboxy-1-cyclopropyl-6-fluoro-8-methoxy-4-oxo-1,4-dihydroquinolin-7-yl)-piperidin-3-hydrazino-methylenyl]-rifamycin SV]
- MIC [1]: 0.008 to 0.03 µg/mL (≈ 0.00728 to 0.0273 µM)
- MIC [2]: 0.008 to 0.1 µg/mL (≈ 0.00728 to 0.0911 µM)
- MIC [3]: 0.125 to 4 µg/mL (≈ 0.114 to 3.64 µM)
- MIC [4]: 0.008 to 0.06 µg/mL (≈ 0.00728 to 0.0546 µM)
- MIC [5]: 0.06 to 16 µg/mL (≈ 0.0546 to 14.6 µM)
- MIC [6]: 0.008 to 0.125 µg/mL (≈ 0.00728 to 0.114 µM)
- MIC [7]: 0.008 to 1 µg/mL (≈ 0.00728 to 0.911 µM)

Compound: COc1c(N2CCC(NC3CCN(/N=C/c4c5c(O)c6c(O)c(C)c7c(c6c4O)C(=O)[C@@](C)(O/C=C/[C@H](OC)[C@@H](C)[C@@H](OC(C)=O)[C@H](C)[C@H](O)[C@H](C)[C@@H](O)[C@@H](C)/C=C/C=C(/C)C(=O)N5)O7)CC3)C2)c(F)cc2c(=O)c(C(=O)O)cn(C3CC3)c12 (mixture of isomers) [Example 26, (R/S)-3-{4-[1-(3-Carboxy-1-cyclopropyl-6-fluoro-8-methoxy-4-oxo-1,4-dihydroquinolin-7-yl)-pyrrolidin-3-ylamino]-piperidin-1-yl-aminomethylenyl}-rifamycin SV]
- MIC [1]: 0.008 to 0.03 µg/mL (≈ 0.00685 to 0.0257 µM)
- MIC [2]: 0.008 to 0.1 µg/mL (≈ 0.00685 to 0.0857 µM)
- MIC [3]: 0.125 to 4 µg/mL (≈ 0.107 to 3.43 µM)
- MIC [4]: 0.008 to 0.06 µg/mL (≈ 0.00685 to 0.0514 µM)
- MIC [5]: 0.06 to 16 µg/mL (≈ 0.0514 to 13.7 µM)
- MIC [6]: 0.008 to 0.125 µg/mL (≈ 0.00685 to 0.107 µM)
- MIC [7]: 0.008 to 1 µg/mL (≈ 0.00685 to 0.857 µM)

Compound: COc1c(N2CCN(C3CCN(/N=C/c4c5c(O)c6c(O)c(C)c7c(c6c4O)C(=O)[C@@](C)(O/C=C/[C@H](OC)[C@@H](C)[C@@H](OC(C)=O)[C@H](C)[C@H](O)[C@H](C)[C@@H](O)[C@@H](C)/C=C/C=C(/C)C(=O)N5)O7)C3)CC2)c(F)cc2c(=O)c(C(=O)O)cn(C3CC3)c12 (mixture of isomers) [Example 28, (R/S)-3-{3-[1-(3-carboxy-1-cyclopropyl-6-fluoro-8-methoxy-4-oxo-1,4-dihydroquinolin-7-yl)-piperazin-4-yl]-pyrrolidinyl-1-hydrazino-methylenyl}-rifamycin SV]
- MIC [1]: 0.008 to 0.03 µg/mL (≈ 0.00694 to 0.026 µM)
- MIC [2]: 0.008 to 0.1 µg/mL (≈ 0.00694 to 0.0867 µM)
- MIC [3]: 0.125 to 4 µg/mL (≈ 0.108 to 3.47 µM)
- MIC [4]: 0.008 to 0.06 µg/mL (≈ 0.00694 to 0.052 µM)
- MIC [5]: 0.06 to 16 µg/mL (≈ 0.052 to 13.9 µM)
- MIC [6]: 0.008 to 0.125 µg/mL (≈ 0.00694 to 0.108 µM)
- MIC [7]: 0.008 to 1 µg/mL (≈ 0.00694 to 0.867 µM)

Compound: COc1c(N2CCC(N(Cc3ccccn3)/N=C/c3c4c(O)c5c(O)c(C)c6c(c5c3O)C(=O)[C@@](C)(O/C=C/[C@H](OC)[C@@H](C)[C@@H](OC(C)=O)[C@H](C)[C@H](O)[C@H](C)[C@@H](O)[C@@H](C)/C=C/C=C(/C)C(=O)N4)O6)C2)c(F)cc2c(=O)c(C(=O)O)cn(C3CC3)c12 (mixture of isomers) [Example 30, (R/S)-3-[1-(3-carboxy-1-cyclopropyl-6-fluoro-8-methoxy-4-oxo-1,4-dihydroquinolin-7-yl)-pyrrolidinyl-3-(pyridin-2-ylmethyl)hydrazino-methylenyl]-rifamycin SV]
- MIC [1]: 0.008 to 0.03 µg/mL (≈ 0.00681 to 0.0255 µM)
- MIC [2]: 0.008 to 0.1 µg/mL (≈ 0.00681 to 0.0851 µM)
- MIC [3]: 0.125 to 4 µg/mL (≈ 0.106 to 3.4 µM)
- MIC [4]: 0.008 to 0.06 µg/mL (≈ 0.00681 to 0.0511 µM)
- MIC [5]: 0.06 to 16 µg/mL (≈ 0.0511 to 13.6 µM)
- MIC [6]: 0.008 to 0.125 µg/mL (≈ 0.00681 to 0.106 µM)
- MIC [7]: 0.008 to 1 µg/mL (≈ 0.00681 to 0.851 µM)

Compound: CO[C@H]1/C=C/O[C@@]2(C)Oc3c(C)c(O)c4c(O)c(c(/C=N/N5CCC(C(=O)NC6CCN(c7c(F)cc8c(=O)c(C(=O)O)cn(C9CC9)c8c7Cl)C6)CC5)c(O)c4c3C2=O)NC(=O)/C(C)=C\C=C\[C@H](C)[C@H](O)[C@@H](C)[C@@H](O)[C@@H](C)[C@H](OC(C)=O)[C@@H]1C (mixture of isomers) [Example 31, (R/S)-3-{4-[1-(3-Carboxy-8-chloro-1-cyclopropyl-6-fluoro-4-oxo-1,4-dihydroquinolin-7-yl)-pyrrolidin-3-ylcarbamoyl]-piperidin-1-yl-aminomethylenyl}-rifamycin SV]
- MIC [1]: 0.008 to 0.03 µg/mL (≈ 0.00667 to 0.025 µM)
- MIC [2]: 0.008 to 0.1 µg/mL (≈ 0.00667 to 0.0834 µM)
- MIC [3]: 0.125 to 4 µg/mL (≈ 0.104 to 3.33 µM)
- MIC [4]: 0.008 to 0.06 µg/mL (≈ 0.00667 to 0.05 µM)
- MIC [5]: 0.06 to 16 µg/mL (≈ 0.05 to 13.3 µM)
- MIC [6]: 0.008 to 0.125 µg/mL (≈ 0.00667 to 0.104 µM)
- MIC [7]: 0.008 to 1 µg/mL (≈ 0.00667 to 0.834 µM)
